Results on 5 molecules are retold here after US6455076B1, “Formulations and methods for reducing skin irritation” (priority 1994, dated 2002).

Where two headings read alike, the source gives them in different places.

Assay [1] concerns skin irritation caused by lactic acid. The format is in vivo, human. Particulars: for average inhibition of cumulative irritation (Percent Inhibition): cation salt 250 mM in 7.5% lactic acid irritant composition, applied to face, vs equimolar sodium chloride control, average over trials; for Percent Inhibition (cumulative irritation): representative panels, cation 250 mM, 7.5% lactic acid; for Percent Inhibition (cumulative irritation), dose-response: lactic acid irritation protocol. Here is the method: The trials were conducted in a double blind, randomized, vehicle-controlled manner. Various formulations of the invention were tested in over 150 people.
Tests were conducted in multiple panels of from 7 to 12 subjects each. Subjects were instructed not to wear any makeup or facial lotions to the clinic the day of testing. T he subjects were instructed to wash their face with Ivory bar soap in the clinic prior to application of test solutions.
Lactic acid skin-irritant compositions were formulated in an appropriate vehicle prior to application to the skin of the subjects. […] […] The test formulation was applied to a defined portion of the subject's skin, typically the face. Controls were performed by applying a corresponding formulation with an equimolar amount of sodium chloride to a contralateral portion of the subject's skin.
All test solutions (including controls) were applied in a double blind, randomized fashion using the prepared solutions as previously placed in coded vial designated for use on either the right or left side of the face (or other test area). Solutions were typically applied using a cotton swab (six strokes) or sponge applicator to the face and cheek area extending from the midline of the nose over to the center of the cheek and from the cheek bone down to the jaw line. Application was made first to the right side and then to the left.
Sensory assessment scores were recorded for each treated side of the subject's skin every minute for 15 minutes or until three consecutive scores of “zero” irritation were obtained. The following scaled scores were used for sensory assessment:
Symptom scores were cumulated, separately for the cation-treated and control-treated areas, for each individual and also for the panel as a whole. Individuals not reporting a cumulative score of at least “7” on at least one treatment area were excluded (in a blinded fashion) from further analysis in order to ascertain anti-irritant efficacy with respect to the more severely-susceptible test subjects. From a practical standpoint, scores of “0” and “1” on the above scale would be considered highly desirable for a commercial product because such a response would likely not result in a consumer ceasing to use a product. Some consumers, in fact, might view the “barely perceptible” sensations represented by a score of 1 to be an indication that a facial treatment skin care product (especially an exfoliant) was working as advertised. By contrast, irritation scores of “2”, “3” and “4” would likely often result in a consumer never purchasing the product again.

A further assay deals with skin irritation. Put plainly: Cation salts formulated in commercial topical cosmetic product, inhibition of skin irritation. The assay is classed as in vivo. The note with it: various amounts combined with Elizabeth Arden Visible Difference Refining Toner (alcohol-containing solution). The source says: Cation salts of the invention were formulated at various concentrations in various commercially available topical cosmetic products.

Setting [2] is: topical application, lactic acid induced stinging, burning, tingling, itching, erythema.

Take stannous chloride: the “anti-irritant efficacy in panel test (FIGS. 1-4, in words)” value in assay [1] (250 mM, one panel, time course and cumulative irritation) was “overall efficacy of the subject formulation is clear”. Also, the “average inhibition of cumulative irritation (Percent Inhibition)” value (from here on “average inhibition … (Percent Inhibition)”) in assay [1] is listed as 50%. Besides, the “Percent Inhibition (cumulative irritation)” value in assay [1] (vehicle 33.75% H2O/33.75% Gly/25% EtOH) was 50%. Further, the “anti-irritant activity in clinical trials (in words)” value (“anti-irritant activity” below) in assay [1] (setting [2]) was “particularly active as anti-irritants”.
As to `[F][Sn][F]` [Stannous fluoride, stannous fluoride], the “inhibition of skin irritation (in words)” value in the assay with skin irritation was “effective to inhibit skin irritation”. Also, the “average inhibition … (Percent Inhibition)” value in assay [1] was found to be 15%. Besides, the “Percent Inhibition (cumulative irritation)” value in assay [1] (vehicle 10% EtOH) is reported as 17%.
For the molecule `O=[N+]([O-])[O-].O=[N+]([O-])[O-].[Sn+2]` [stannous nitrate], the “anti-irritant activity” value in assay [1] (human, in vivo) is “particularly active as anti-irritants”.
`[Sn+2]` [tin(II) (Sn^2+), tin(II)]: in assay [1] (setting [2]), the “anti-irritant activity” value is recorded as “effective”.
As for `[Cl][Al]([Cl])[Cl]` [Aluminum chloride, aluminum chloride], in the assay on skin irritation, the “inhibition of skin irritation (in words)” value is on record as “effective to inhibit skin irritation”. Besides, the “average inhibition … (Percent Inhibition)” value in assay [1] turned out to be 46%. The “Percent Inhibition (cumulative irritation)” value in assay [1] (vehicle 10% EtOH) stood at 43%. The “Percent Inhibition (cumulative irritation), dose-response” value in assay [1] (salt concentration 31 mM) is given as 12%; in assay [1] (salt concentration 62 mM), 54%; in assay [1] (salt concentration 125 mM), 50%; in assay [1] (salt concentration 250 mM) it was 42%; in assay [1] (salt concentration 500 mM), 44%. Besides, in assay [1] (setting [2]), the “anti-irritant activity” value is “particularly active as anti-irritants”.
